Reference: patent US20180228823A1, “ANTI-DIABETIC EFFECTS OF GYPENOSIDE 75” (INTELLIGENT SYNTHETIC BIOLOGY CENTER, priority 2016, published 2018)

Legend:
Assay type in all cases: cell-based
INS-1 cells [1] = test: Insulin secretion of INS-1 cells measured by ELISA; details: 10 μM, 2 hours
Protocol: In order to confirm the effect of gypenoside 75 on an increase in insulin secretion, the amount of insulin secreted after treatment with gypenoside 75 was measured. Specifically, in order to confirm the effect of gypenoside 75 on an increase in insulin secretion, INS-1 cells, which are insulin-secreting cells, were cultured in a cell incubator (37° C., 5% CO2, RPMI culture medium, 10% FBS). The cells were treated with each of 10 μM of gypenoside 75, ginsenoside F1, ginsenoside Rg3, ginsenoside Rb2, and ginsenoside Rb3 for 2 hours, and the amounts of insulin secreted after the treatments were then measured via the ELISA method.

INS-1 cells [2] = test: Intracellular ATP amount by luciferase/luciferin assay in INS-1 cells; details: 10 μM, 2 hours, luciferase
Protocol: (§1) If mitochondrial function is impaired, it may cause diabetes mellitus by interfering with insulin signaling. Accordingly, in order to confirm the effect of gypenoside 75 on the activation of the mitochondrial function, after gypenoside 75 was treated, an increased amount of ATP and mitochondrial membrane potentials were measured. Specifically, in order to confirm the effect of gypenoside 75 on the activation of the mitochondrial function, INS-1 cells, which are insulin-secreting cells, were cultured in a cell incubator (37° C., 5% CO2, RPMI culture medium, 10% FBS). The cells were treated with 10 μM of gypenoside 75 for 2 hours, and the amount of ATP and mitochondrial membrane potentials inside the cells were then measured. To measure the amount of intracellular ATP, the INS-1 cells treated with gypenoside 75 were lysed through freezing-thawing and ultrasonication methods. The cell lysates were mixed with luciferase and luciferin to induce fluorescence. As the activation of the luciferase and fluorescence induced thereby depend on the amount of ATP, the degree of fluorescence was measured with a fluorometer to determine the amount of ATP. To measure the mitochondrial membrane potential, the INS-1 cells treated with gypenoside 75 were then stained with TMRM, and the degree of the staining of each cell was measured using a FACS instrument. As the mitochondrial membrane potential increases, the degree of staining by TMRM increases.

INS-1 cells [3] = test: Mitochondrial membrane potential by TMRM staining and FACS in INS-1 cells; details: 10 μM, 2 hours, TMRM staining, FACS
Protocol: as §1

SMILES	increase of the amount of insulin secreted compared to control group (DMSO) (INS-1 cells [1])	increase of the amount of intracellular ATP compared to control group (DMSO) (INS-1 cells [2])	increase of mitochondrial membrane potential compared to control group (DMSO) (INS-1 cells [3])
CC(C)=CCC[C@](C)(O[C@@H]1O[C@H](CO)[C@@H](O)[C@H](O)[C@H]1O)[C@H]1CC[C@]2(C)[C@@H]1[C@H](O)C[C@@H]1[C@@]3(C)CC[C@H](O)C(C)(C)[C@@H]3[C@@H](O)C[C@]12C [ginsenoside F1]	50%	about 40%	about 20%
CC(C)=CCC[C@](C)(O[C@@H]1O[C@H](CO[C@@H]2OC[C@H](O)[C@H](O)[C@H]2O)[C@@H](O)[C@H](O)[C@H]1O)[C@H]1CC[C@]2(C)[C@@H]1[C@H](O)C[C@@H]1[C@@]3(C)CC[C@H](O[C@@H]4O[C@H](CO)[C@@H](O)[C@H](O)[C@H]4O[C@@H]4O[C@H](CO)[C@@H](O)[C@H](O)[C@H]4O)C(C)(C)[C@@H]3CC[C@]12C [ginsenoside Rb2]	50%	about 40%	about 20%
CC(C)=CCC[C@](C)(O[C@@H]1O[C@H](CO[C@@H]2OC[C@@H](O)[C@H](O)[C@H]2O)[C@@H](O)[C@H](O)[C@H]1O)[C@H]1CC[C@]2(C)[C@@H]1[C@H](O)C[C@@H]1[C@@]3(C)CC[C@H](O[C@@H]4O[C@H](CO)[C@@H](O)[C@H](O)[C@H]4O[C@@H]4O[C@H](CO)[C@@H](O)[C@H](O)[C@H]4O)C(C)(C)[C@@H]3CC[C@]12C [ginsenoside Rb3]	50%	about 40%	about 20%
CC(C)=CCC[C@](C)(O)[C@H]1CC[C@]2(C)[C@@H]1[C@H](O)C[C@@H]1[C@@]3(C)CC[C@H](O[C@@H]4O[C@H](CO)[C@@H](O)[C@H](O)[C@H]4O[C@@H]4O[C@H](CO)[C@@H](O)[C@H](O)[C@H]4O)C(C)(C)[C@@H]3CC[C@]12C [ginsenoside Rg3]	50%	about 40%	about 20%
CC(C)=CCC[C@](C)(O[C@@H]1O[C@H](CO[C@@H]2O[C@H](CO)[C@@H](O)[C@H](O)[C@H]2O)[C@@H](O)[C@H](O)[C@H]1O)[C@H]1CC[C@]2(C)[C@@H]1[C@H](O)C[C@@H]1[C@@]3(C)CC[C@H](O)C(C)(C)[C@@H]3CC[C@]12C [gypenoside 75]	about 110%	50%	about 40%
